Experimental data from ChEMBL document CHEMBL1133918, “Design, synthesis and antiproliferative activity of tripentones: a new series of antitubulin agents” (Bioorg Med Chem Lett, 2001).
Values belong to the compound of their own block, whether it stands above or below them.

Tests used:
[1] = test system: L1210; experiment: In vitro inhibitory concentration against L1210 leukemia cell line for antiproliferative activity; type: functional, cell-based; conditions: Mus musculus
[2] = test system: L1210; experiment: Effect in the G2/M phase of L1210 leukemia cell with a significant percentage of cells having 8N DNA content at 5 uM; type: functional, Mus musculus
[3] = test system: L1210; experiment: Effect in the G2/M phase of L1210 leukemia cell with a significant percentage of cells having 8N DNA content at 0.5 uM; type: functional, Mus musculus
[4] = test system: L1210; experiment: Effect in the G1 phase of L1210 leukemia cell at 50 uM; type: functional, Mus musculus
[5] = test system: NCI-H69; experiment: Tested for antiproliferative activity against H-69 tumoral cell line; type: functional, cell-based; conditions: Homo sapiens
[6] = test system: B16; experiment: Tested for antiproliferative activity against B16 tumoral cell line; type: functional, cell-based; conditions: Mus musculus
[7] = test system: P388/VCR-20; experiment: Tested for antiproliferative activity against VCR-20 tumoral cell line; type: functional, cell-based; conditions: Mus musculus
[8] = test system: OVCAR-3; experiment: Tested for antiproliferative activity against Ovcar-3 tumoral cell line; type: functional, cell-based; conditions: Homo sapiens
[9] = Concentration required to alter the assembly reaction of microtubules without any depolymerization effect; type: functional
[10] = test system: DU-145; experiment: Tested for antiproliferative activity against DU145 tumoral cell line; type: functional, cell-based; conditions: Homo sapiens
[11] = test system: L1210; experiment: Tested for antiproliferative activity against L1210 tumoral cell line; type: functional, cell-based; conditions: Mus musculus
[12] = test system: P388; experiment: Tested for antiproliferative activity against P388 tumoral cell line; type: functional, cell-based; conditions: Mus musculus
[13] = test system: KB; experiment: Tested for antiproliferative activity against KB-A1 tumoral cell line; type: functional, cell-based; conditions: Homo sapiens
[14] = test system: A2780; experiment: Tested for antiproliferative activity against A-2780 tumoral cell line; type: functional, cell-based; conditions: Homo sapiens
[15] = test system: KB 3-1; experiment: Tested for antiproliferative activity against KB 3-1 tumoral cell line; type: functional, cell-based; conditions: Homo sapiens
[16] = test system: MOLT-4; experiment: Tested for cytostatic activity against Leukemia MOLT-4 cell line of NCI 60 tumor cell line panel; type: functional; conditions: Homo sapiens
[17] = test system: OVCAR-3; experiment: Tested for cytostatic activity against Ovarian OVCAR-3 cell line of NCI 60 tumor cell line panel; type: functional; conditions: Homo sapiens
[18] = test system: SF-295; experiment: Tested for cytostatic activity against Central nervous system SF-295 cell line of NCI 60 tumor cell line panel; type: functional; conditions: Homo sapiens
[19] = test system: DU-145; experiment: Tested for cytostatic activity against Prostate DU-145 cell line of NCI 60 tumor cell line panel; type: functional; conditions: Homo sapiens
[20] = test system: Hs-578T; experiment: Tested for cytostatic activity against Breast Hs 578.T cell line of NCI 60 tumor cell line panel; type: functional; conditions: Homo sapiens
[21] = test system: EKVX; experiment: Tested for cytostatic activity against non small cell lung(NSCL) EKVX cell line of NCI 60 tumor cell line panel; type: functional; conditions: Homo sapiens
[22] = test system: A498; experiment: Tested for cytostatic activity against Renal A-498 cell line of NCI 60 tumor cell line panel; type: functional; conditions: Homo sapiens
[23] = test system: SK-MEL-2; experiment: Tested for cytostatic activity against Melanoma SK-MEL2 cell line of NCI 60 tumor cell line panel; type: functional; conditions: Homo sapiens
[24] = test system: HCC 2998; experiment: Tested for cytostatic activity against colon HCC2998 cell line of NCI 60 tumor cell line panel; type: functional; conditions: Homo sapiens
[25] = test system: L1210; experiment: Effect in the G2/M phase of L1210 leukemia cell with a significant percentage of cells having 8N DNA content at 1 uM; type: functional, Mus musculus
[26] = test system: L1210; experiment: Effect in the G2/M phase of L1210 leukemia cell with a significant percentage of cells having 8N DNA content at 25 uM; type: functional, Mus musculus
[27] = test system: L1210; experiment: Effect in the G2/M phase of L1210 leukemia cell with a significant percentage of cells having 8N DNA content at 10 uM; type: functional, Mus musculus
[28] = Inhibition of tubulin polymerization; type: functional

IC50 [1]: 36.4 µM
Structure (SMILES): COc1cc(-c2csc3c2-n2cccc2C3=O)cc(OC)c1OC

IC50 [1]: 29 µM
Structure (SMILES): O=C1c2scc(-c3cccc(O)c3)c2-n2cccc21

IC50 [1]: 18.9 µM
Structure (SMILES): COc1ccccc1-c1csc2c1-n1cccc1C2=O
Effect [2]: 75%

IC50 [1]: 0.28 µM
Structure (SMILES): O=C1c2scc(-c3ccc(O)c(O)c3)c2-n2cccc21
Effect [3]: 86%

IC50 [1]: > 100 µM
Structure (SMILES): Cc1csc2c1-n1cccc1C2=O

IC50 [1]: 3.7 µM
Structure (SMILES): O=C1c2scc(-c3ccccc3O)c2-n2cccc21
Effect [4]: 72%

IC50 [5]: 0.036 µM
IC50 [6]: 0.023 µM
IC50 [7]: 0.021 µM
IC50 [8]: 0.031 µM
IC50 [9]: 2.9 µM
IC50 [1]: 0.015 µM
IC50 [10]: 0.043 µM
IC50 [11]: 0.015 µM
IC50 [12]: 0.038 µM
IC50 [13]: 0.015 µM
IC50 [14]: 0.041 µM
IC50 [15]: 0.018 µM
Structure (SMILES): COc1ccc(-c2csc3c2-n2cccc2C3=O)cc1O
Effect [3]: 80%

Structure (SMILES): O=C1c2scc(-c3ccc(Cl)cc3)c2-n2cccc21
GI50 [16]: 79.4 µM
GI50 [17]: > 100 µM
GI50 [18]: > 100 µM
GI50 [19]: > 100 µM
GI50 [20]: 2 µM
GI50 [21]: 2.51 µM
GI50 [22]: 1 µM
GI50 [23]: > 100 µM
GI50 [24]: > 100 µM

IC50 [1]: 28.1 µM
Structure (SMILES): CCCOc1ccc(-c2csc3c2-n2cccc2C3=O)cc1

IC50 [1]: 0.43 µM
Structure (SMILES): CCOc1ccc(-c2csc3c2-n2cccc2C3=O)cc1
Effect [25]: 88%

IC50 [1]: > 100 µM
Structure (SMILES): O=C1c2sccc2-n2cccc21

IC50 [1]: 11.7 µM
Structure (SMILES): COc1ccc(-c2csc3c2-n2cccc2C3=O)cc1OC
Effect [26]: 86%

IC50 [1]: 26.7 µM
Structure (SMILES): O=C1c2scc(-c3ccccc3)c2-n2cccc21
GI50 [16]: 12.6 µM
GI50 [17]: 15.8 µM
GI50 [18]: 20 µM
GI50 [19]: 25.1 µM
GI50 [20]: 5.01 µM
GI50 [21]: 5.01 µM
GI50 [22]: 1.58 µM
GI50 [23]: 12.6 µM
GI50 [24]: 20 µM

Structure (SMILES): O=C1c2scc(-c3ccc(F)cc3)c2-n2cccc21
GI50 [16]: 25.1 µM
GI50 [17]: 50.1 µM
GI50 [18]: 25.1 µM
GI50 [19]: 79.4 µM
GI50 [20]: 20 µM
GI50 [21]: 25.1 µM
GI50 [22]: 1.58 µM
GI50 [23]: 31.6 µM
GI50 [24]: 25.1 µM

IC50 [1]: 8 µM
Structure (SMILES): COc1cc(-c2csc3c2-n2cccc2C3=O)ccc1O
Effect [26]: 86%

IC50 [1]: 4.2 µM
Structure (SMILES): O=C1c2scc(-c3ccc4c(c3)OCO4)c2-n2cccc21
Effect [27]: 88%

IC50 [1]: 29.6 µM
Structure (SMILES): CCCCOc1ccc(-c2csc3c2-n2cccc2C3=O)cc1

IC50 [1]: 0.19 µM
Structure (SMILES): COc1ccc(-c2csc3c2-n2cccc2C3=O)cc1
GI50 [16]: 0.0398 µM
GI50 [17]: 0.0398 µM
Effect [3]: 83%
GI50 [18]: 0.0398 µM
GI50 [19]: 0.158 µM
GI50 [20]: 0.0501 µM
GI50 [21]: 0.794 µM
GI50 [22]: 0.631 µM
GI50 [23]: 0.398 µM
GI50 [24]: 0.316 µM

IC50 [1]: 5.2 µM
Structure (SMILES): COc1cccc(-c2csc3c2-n2cccc2C3=O)c1
Effect [26]: 94%

IC50 [1]: 30.1 µM
Structure (SMILES): O=C1c2scc(-c3ccc(O)cc3)c2-n2cccc21

Structure (SMILES): COc1cc([C@@H]2c3cc4c(cc3C[C@H]3COC(=O)[C@@H]32)OCO4)cc(OC)c1OC [DESOXYPODOPHYLLOTOXIN]
IC50 [28]: 2.4 µM
